Data as given in patent US20140171404A1, “Autotaxin inhibitors” (NOVARTIS AG, priority 2012, published 2014).

Molecular target: T1, Recombinant human ATX (Homo sapiens, UniProt Q13822)
T1 construct: made in house; host or cells: human embryonic kidney (HEK) cells
Assay: Assessing ATX inhibition: released choline, Amplex Red fluorescence
Type: biochemical
Details: not given
Method: LPC (oleoyl (18:1)) was purchased from Avanti Polar Lipids (Alabaster; AL) and solubilized in methanol to 20 mM. Amplex Red was obtained from Invitrogen Life Technologies (Paisley, UK) and dissolved in DMSO to 10 mM. Choline oxidase and horseradish peroxidase (HRP) were obtained from Sigma Aldrich (Dorset, UK) and dissolved in HBSS to 20 U/ml and 200 U/ml respectively. All reagents were stored at −20° C. in single use aliquots. All experimental measurements were performed in assay buffer made up immediately prior to use (HBSS, 0.01% BSA essentially fatty acid free).
Recombinant human ATX was prepared at Novartis (Basel, CH) in a human embryonic kidney (HEK) cell preparation, and stored in single use aliquots of […] (26 μM) stocks stored at −80° C.
All experimental measurements were performed in black 384 well polystyrene (low volume, round bottom, Corning (3676)) plates. PerkinElmer EnVision (Fluorescence Intensity/Absorbance Monochromator) or Tecan Infinite 200 PRO series plate reader was used to detect change in fluorescent intensity.
ATX activity was determined by measurement of released choline in reactions containing ATX (10 nM), choline oxidase (0.1 U/ml), HRP (100 U/ml), amplex red (50 μM) and LPC 18:1 (10 μM). Compounds of the invention were prepared as 10 point serial dilutions from 1 μM in duplicate and pre-incubated with ATX at 37° C. for 20 minutes prior to the addition of remaining reagents. The liberated choline was measured from changes in fluorescence intensity (λex 530 nm, λem 590 nm) of the product resurofin at 37° C. every 2 minutes over a 40-minute period. ATX activity was measured as a slope of the linear portion of the progress curve, typically between 14 to 24 minutes.
Slope data was exported to Graphpad prism (Graphpad software, San Diego, Calif.) where data was fitted to equation 1.
Y=Bottom+(Top−Bottom)/(1+10̂((Log IC50−X)*HillSlope)) Equation 1: […]

SMILES | IC50
O=C(NC1CC2CCC(C1)N2C(=O)CCCc1c[nH]nn1)OCc1cc(Cl)cc(Cl)c1 (stereo not drawn) [Example 47, 3,5-Dichlorobenzyl (8-(4-(1H-1,2,3-triazol-4-yl)butanoyl)-8-azabicyclo[3.2.1]octan-3-yl)carbamate] | 3160 nM

Same assay, conditions: ATX 10 nM, LPC 18:1 10 μM, pre-incubated with ATX at 37° C. for 20 minutes; Table 1, exemplified compounds; read-out: IC50

IC50 | SMILES
42 nM | O=C(NC1CCN(C(=O)CCCCc2c[nH]nn2)CC1)OCc1cc(Cl)cc(Cl)c1 [Example 52, 3,5-Dichlorobenzyl (1-(5-(1H-1,2,3-triazol-4-yl)pentanoyl)piperidin-4-yl)carbamate]
119 nM | O=C(CCCc1c[nH]nn1)NC1CCN(C(=O)CCc2cc(Cl)cc(Cl)c2)CC1 [Example 42, N-(1-(3-(3,5-Dichlorophenyl)propanoyl)piperidin-4-yl)-4-(1H-1,2,3-triazol-4-yl)butanamide]
29 nM | N#Cc1cc(Cl)cc(COC(=O)N2CCC(NCCCCc3c[nH]nn3)CC2)c1 [Example 75]
12 nM | O=C(CCCc1c[nH]nn1)NC1CN(C(=O)OCc2cc(Cl)cc(Cl)c2)C1 [Example 50, 3,5-Dichlorobenzyl 3-(4-(1H-1,2,3-triazol-4-yl)butanamido)azetidine-1-carboxylate]
728 nM | O=C(OCc1cc(Cl)cc(Cl)c1)N1CCC(CCNc2c(O)c(=O)c2=O)CC1 [Example 4]
791 nM | O=C(NC1CCCN(C(=O)CCCc2c[nH]nn2)CC1)OCc1cc(Cl)cc(Cl)c1 (stereo not drawn) [Example 48, 3,5-Dichlorobenzyl (1-(4-(1H-1,2,3-triazol-4-yl)butanoyl)azepan-4-yl)carbamate]
206 nM | O=C(CCCc1c[nH]nn1)NC1CCN(C(=O)OCc2ccc(Cl)cc2Cl)CC1 [Example 58, 2,4-Dichlorobenzyl 4-(4-(1H-1,2,3-triazol-4-yl)butanamido)piperidine-1-carboxylate]
375 nM | O=C(NCCN1CCN(C(=O)OCc2cc(Cl)cc(Cl)c2)CC1)c1c[nH]c(=O)o1 [Example 27, 3,5-Dichlorobenzyl 4-(2-(2-oxo-2,3-dihydrooxazole-5-carboxamido)ethyl)piperazine-1-carboxylate]
8 nM | N#Cc1cc(Cl)cc(COC(=O)N2CCC(NC(=O)CCCc3c[nH]nn3)CC2)c1 [Example 44, 3-Chloro-5-cyanobenzyl 4-(4-(1H-1,2,3-triazol-4-yl)butanamido)piperidine-1-carboxylate]
396 nM | O=C(CCc1cc(O)no1)NC1CCN(C(=O)OCc2cc(Cl)cc(Cl)c2)CC1 [Example 23, 3,5-Dichlorobenzyl 4-(3-(3-hydroxyisoxazol-5-yl)propanamido)piperidine-1-carboxylate]
7 nM | O=C(CCC1CCN(C(=O)OCc2cc(Cl)cc(Cl)c2)CC1)NCc1c[nH]nn1 [Example 60, 3,5-Dichlorobenzyl 4-(3-(((1H-1,2,3-triazol-4-yl)methyl)amino)-3-oxopropyl)piperidine-1-carboxylate]
40 nM | O=C(CCCc1c[nH]nn1)NC1CCN(C(=O)OCc2ccc(C(F)(F)F)cc2)CC1 [Example 53, 4-(Trifluoromethyl)benzyl 4-(4-(1H-1,2,3-triazol-4-yl)butanamido)piperidine-1-carboxylate]
540 nM | CCOc1c(N(C)CCC2CN(C(=O)OCc3cc(Cl)cc(Cl)c3)CCO2)c(=O)c1=O (stereo not drawn) [Example 14, 3,5-Dichlorobenzyl 2-(2-((2-ethoxy-3,4-dioxocyclobut-1-en-1-yl)(methyl)amino)ethyl)morpholine-4-carboxylate]
828 nM | CN(CCC1CN(C(=O)OCc2cc(Cl)cc(Cl)c2)CCO1)C(=O)c1c[nH]c(=O)o1 (stereo not drawn) [Example 13, 3,5-Dichlorobenzyl 2-(2-(N-methyl-2-oxo-2,3-dihydrooxazole-5-carboxamido)ethyl)morpholine-4-carboxylate]
28 nM | O=C(Cc1c[nH]nn1)NCCC1CCN(C(=O)OCc2cc(Cl)cc(Cl)c2)CC1 [Example 7, 3,5-Dichlorobenzyl 4-(2-(2-(1H-1,2,3-triazol-4-yl)acetamido)ethyl)piperidine-1-carboxylate]
541 nM | CN(CCC1CCN(C(=O)OCc2cc(Cl)cc(Cl)c2)CC1)C(=O)c1nn[nH]n1 [Example 29, 3,5-Dichlorobenzyl 4-(2-(N-methyl-2H-tetrazole-5-carboxamido)ethyl)piperidine-1-carboxylate]
51 nM | CCOc1c(NCCC2CN(C(=O)OCc3cc(Cl)cc(Cl)c3)CCO2)c(=O)c1=O (stereo not drawn) [Example 11, 3,5-Dichlorobenzyl 2-(2-((2-ethoxy-3,4-dioxocyclobut-1-en-1-yl)amino)ethyl)morpholine-4-carboxylate]
731 nM | O=C(CCCc1c[nH]nn1)NC1CCCN(C(=O)OCc2cc(Cl)cc(Cl)c2)CC1 (stereo not drawn) [Example 46, 3,5-Dichlorobenzyl 4-(4-(1H-1,2,3-triazol-4-yl)butanamido)azepane-1-carboxylate]
8 nM | N#Cc1cc(Cl)cc(COC(=O)N2CCC(NC(=O)CCCCc3c[nH]nn3)CC2)c1 [Example 64, 3-Chloro-5-cyanobenzyl 4-(5-(1H-1,2,3-triazol-4-yl)pentanamido)piperidine-1-carboxylate]
77 nM | O=C(CCCc1c[nH]nn1)NC1CCN(C(=O)/C=C/c2ccc(Cl)cc2Cl)CC1 [Example 39, (E)-N-(1-(3-(2,4-Dichlorophenyl)acryloyl)piperidin-4-yl)-4-(1H-1,2,3-triazol-4-yl)butanamide]
113 nM | O=C(CCCc1c[nH]nn1)NC1CCN(C(=O)CCc2ccc(Cl)cc2Cl)CC1 [Example 43, N-(1-(3-(2,4-Dichlorophenyl)propanoyl)piperidin-4-yl)-4-(1H-1,2,3-triazol-4-yl)butanamide]
154 nM | O=C(CCCc1c[nH]nn1)NC1CCN(C(=O)COc2cc(Cl)cc(Cl)c2)CC1 [Example 55, N-(1-(2-(3,5-Dichlorophenoxy)acetyl)piperidin-4-yl)-4-(1H-1,2,3-triazol-4-yl)butanamide]
3 nM | O=C(CCCc1c[nH]nn1)NC1CCN(C(=O)OCc2cc(Br)cc(C(F)(F)F)c2)CC1 [Example 63, 3-Bromo-5-(trifluoromethyl)benzyl 4-(4-(1H-1,2,3-triazol-4-yl)butanamido)piperidine-1-carboxylate]
520 nM | CN(CCC1CCN(C(=O)OCc2cc(Cl)cc(Cl)c2)CC1)C(=O)c1cc(O)[nH]n1 [Example 25, 3,5-Dichlorobenzyl 4-(2-(5-hydroxy-N-methyl-1H-pyrazole-3-carboxamido)ethyl)piperidine-1-carboxylate]
624 nM | CN(CCC1CCN(C(=O)OCc2cc(Cl)cc(Cl)c2)CC1)C(=O)c1coc(=O)[nH]1 [Example 24, 3,5-Dichlorobenzyl 4-(2-(N-methyl-2-oxo-2,3-dihydrooxazole-4-carboxamido)ethyl)piperidine-1-carboxylate]
445 nM | CCOc1c(NCCC2CCN(C(=O)OCc3cc(Cl)cc(Cl)c3)CC2)c(=O)c1=O [Example 3]
543 nM | O=C(O)CCCCC(=O)NC1CCN(C(=O)OCc2cc(Cl)cc(Cl)c2)CC1 [Example 10, 6-((1-(((3,5-Dichlorobenzyl)oxy)carbonyl)piperidin-4-yl)amino)-6-oxohexanoic acid]

SMILES | IC50
Cc1cc(Cl)cc(COC(=O)N2CCC(NC(=O)CCCc3c[nH]nn3)CC2)c1 [Example 56, 3-Chloro-5-methylbenzyl 4-(4-(1H-1,2,3-triazol-4-yl)butanamido)piperidine-1-carboxylate] | 10 nM

Same assay, conditions: same assay; compounds outside the scope of the invention; read-out: IC50

IC50 | SMILES
> 5500 nM | O=C(/C=C/c1c[nH]cn1)N1CCN(C2CCN(C(=O)CCc3ccc(C(F)(F)F)cc3)CC2)CC1 [reference compound]
